Laboratory results as given in the NIST ThermoML archive (doi:10.1016/j.tca.2014.11.009).
± gives the expanded uncertainty stated by the source.

Assay: xn = mol fraction of the nth substance listed
Settings: 100 kPa, Liquid; for speed of sound: Frequency=3 MHz, Sing-around technique in a fixed-path interferometer; for mass density: Vibrating tube method

O=Cc1ccco1 [2-furaldehyde] + CCC(C)O
Settings | mass density, 283.15 K [kg/m3] | mass density, 293.15 K [kg/m3] | mass density, 303.15 K [kg/m3] | mass density, 313.15 K [kg/m3] | speed of sound, 283.15 K [m/s] | speed of sound, 293.15 K [m/s] | speed of sound, 303.15 K [m/s] | speed of sound, 313.15 K [m/s]
x1 = 0.0501 | 831.27 ± 0.4 | 822.97 ± 0.39 | 814.4 ± 0.39 | 805.5 ± 0.39 | 1279.1 ± 1.6 | 1242.7 ± 1.6 | 1206.1 ± 1.6 | 1169.4 ± 1.6
x1 = 0.1001 | 847.35 ± 0.4 | 838.83 ± 0.4 | 830.06 ± 0.4 | 820.99 ± 0.39 | 1289.1 ± 1.6 | 1252.7 ± 1.6 | 1216.1 ± 1.6 | 1179.5 ± 1.6
x1 = 0.1507 | 863.92 ± 0.41 | 855.21 ± 0.4 | 846.24 ± 0.4 | 837.01 ± 0.4 | 1299.3 ± 1.6 | 1263.1 ± 1.6 | 1226.6 ± 1.6 | 1190 ± 1.6
x1 = 0.2001 | 880.27 ± 0.41 | 871.37 ± 0.41 | 862.24 ± 0.41 | 852.86 ± 0.4 | 1309.5 ± 1.6 | 1273.3 ± 1.6 | 1236.9 ± 1.6 | 1200.5 ± 1.6
x1 = 0.3001 | 913.96 ± 0.41 | 904.72 ± 0.41 | 895.3 ± 0.41 | 885.68 ± 0.41 | 1330.4 ± 1.6 | 1294.4 ± 1.6 | 1258.3 ± 1.6 | 1222.1 ± 1.6
x1 = 0.3501 | 931.13 ± 0.42 | 921.74 ± 0.42 | 912.18 ± 0.41 | 902.46 ± 0.41 | 1341.2 ± 1.6 | 1305.4 ± 1.6 | 1269.3 ± 1.6 | 1233.2 ± 1.6
x1 = 0.4001 | 948.49 ± 0.42 | 938.98 ± 0.42 | 929.33 ± 0.42 | 919.51 ± 0.42 | 1352 ± 1.6 | 1316.4 ± 1.6 | 1280.4 ± 1.6 | 1244.1 ± 1.6
x1 = 0.4501 | 966.01 ± 0.42 | 956.37 ± 0.42 | 946.59 ± 0.42 | 936.66 ± 0.42 | 1363.4 ± 1.6 | 1327.8 ± 1.6 | 1291.9 ± 1.6 | 1256 ± 1.6
x1 = 0.5 | 983.65 ± 0.43 | 973.9 ± 0.42 | 964.03 ± 0.42 | 954.03 ± 0.42 | 1375.1 ± 1.6 | 1339.4 ± 1.6 | 1303.5 ± 1.6 | 1267.6 ± 1.6
x1 = 0.55 | 1001.41 ± 0.43 | 991.58 ± 0.43 | 981.69 ± 0.43 | 971.7 ± 0.42 | 1387.3 ± 1.6 | 1351.4 ± 1.6 | 1315.5 ± 1.6 | 1279.6 ± 1.6
x1 = 0.6 | 1019.4 ± 0.44 | 1009.48 ± 0.43 | 999.51 ± 0.43 | 989.44 ± 0.43 | 1399.4 ± 1.6 | 1363.4 ± 1.6 | 1327.4 ± 1.6 | 1291.5 ± 1.6
x1 = 0.6501 | 1037.63 ± 0.45 | 1027.6 ± 0.45 | 1017.53 ± 0.44 | 1007.37 ± 0.44 | 1411.8 ± 1.6 | 1375.7 ± 1.6 | 1339.6 ± 1.6 | 1303.6 ± 1.6
x1 = 0.8001 | 1093.43 ± 0.48 | 1083.14 ± 0.48 | 1072.78 ± 0.47 | 1062.25 ± 0.46 | 1448.5 ± 1.6 | 1412 ± 1.6 | 1375.6 ± 1.6 | 1339.5 ± 1.6
x1 = 0.8999 | 1131.48 ± 0.51 | 1121 ± 0.5 | 1110.45 ± 0.5 | 1099.81 ± 0.49 | 1472.1 ± 1.6 | 1435.7 ± 1.6 | 1399.2 ± 1.6 | 1363.1 ± 1.6
x1 = 1 | 1169.93 ± 0.37 | 1159.33 ± 0.36 | 1148.69 ± 0.35 | 1138.01 ± 0.34 | 1495.4 ± 1.6 | 1458.8 ± 1.6 | 1422.5 ± 1.6 | 1386.5 ± 1.6

O=Cc1ccco1 [2-furaldehyde] + CCCCO
Settings | mass density, 283.15 K [kg/m3] | mass density, 293.15 K [kg/m3] | mass density, 303.15 K [kg/m3] | mass density, 313.15 K [kg/m3] | speed of sound, 283.15 K [m/s] | speed of sound, 293.15 K [m/s] | speed of sound, 303.15 K [m/s] | speed of sound, 313.15 K [m/s]
x1 = 0.0501 | 833.74 ± 0.41 | 825.93 ± 0.4 | 818 ± 0.4 | 809.97 ± 0.4 | 1301.8 ± 1.6 | 1267.2 ± 1.6 | 1233 ± 1.6 | 1199.2 ± 1.6
x1 = 0.1 | 850.14 ± 0.41 | 842.12 ± 0.4 | 833.98 ± 0.4 | 825.71 ± 0.4 | 1310.6 ± 1.6 | 1275.9 ± 1.6 | 1241.6 ± 1.6 | 1207.7 ± 1.6
x1 = 0.15 | 866.88 ± 0.41 | 858.65 ± 0.41 | 850.29 ± 0.4 | 841.84 ± 0.4 | 1319.6 ± 1.6 | 1285 ± 1.6 | 1250.5 ± 1.6 | 1216.4 ± 1.6
x1 = 0.1999 | 883.58 ± 0.41 | 875.14 ± 0.41 | 866.67 ± 0.41 | 858.15 ± 0.41 | 1328.7 ± 1.6 | 1293.9 ± 1.6 | 1259.3 ± 1.6 | 1225.2 ± 1.6
x1 = 0.2499 | 900.71 ± 0.42 | 892.12 ± 0.41 | 883.46 ± 0.41 | 874.76 ± 0.41 | 1337.3 ± 1.6 | 1302.9 ± 1.6 | 1268.4 ± 1.6 | 1234.2 ± 1.6
x1 = 0.3 | 917.89 ± 0.42 | 909.1 ± 0.42 | 900.31 ± 0.42 | 891.55 ± 0.41 | 1346.9 ± 1.6 | 1312.1 ± 1.6 | 1277.6 ± 1.6 | 1243.3 ± 1.6
x1 = 0.4 | 953.02 ± 0.42 | 943.94 ± 0.42 | 934.84 ± 0.42 | 925.74 ± 0.41 | 1365.5 ± 1.6 | 1330.9 ± 1.6 | 1296.4 ± 1.6 | 1262.1 ± 1.6
x1 = 0.45 | 970.58 ± 0.43 | 961.33 ± 0.42 | 952.08 ± 0.42 | 942.85 ± 0.42 | 1375.2 ± 1.6 | 1340.7 ± 1.6 | 1306.1 ± 1.6 | 1271.7 ± 1.6
x1 = 0.5 | 988.52 ± 0.43 | 979.14 ± 0.43 | 969.78 ± 0.42 | 960.42 ± 0.42 | 1385.7 ± 1.6 | 1351 ± 1.6 | 1316.3 ± 1.6 | 1281.9 ± 1.6
x1 = 0.5473 | 1005.5 ± 0.43 | 995.94 ± 0.43 | 986.39 ± 0.43 | 976.86 ± 0.42 | 1395.8 ± 1.6 | 1361 ± 1.6 | 1326.2 ± 1.6 | 1291.7 ± 1.6
x1 = 0.6999 | 1060.86 ± 0.46 | 1050.92 ± 0.45 | 1041.03 ± 0.45 | 1031.18 ± 0.44 | 1429.8 ± 1.6 | 1394.6 ± 1.6 | 1359.3 ± 1.6 | 1324.3 ± 1.6
x1 = 0.8 | 1097.24 ± 0.48 | 1087.06 ± 0.47 | 1076.9 ± 0.46 | 1066.74 ± 0.46 | 1452.2 ± 1.6 | 1416.4 ± 1.6 | 1380.7 ± 1.6 | 1345.3 ± 1.6
x1 = 0.8497 | 1115.11 ± 0.49 | 1104.87 ± 0.48 | 1094.66 ± 0.47 | 1084.43 ± 0.47 | 1463.1 ± 1.6 | 1427.1 ± 1.6 | 1391.3 ± 1.6 | 1355.7 ± 1.6
x1 = 0.8999 | 1133.5 ± 0.5 | 1123.12 ± 0.49 | 1112.74 ± 0.48 | 1102.3 ± 0.48 | 1474.2 ± 1.6 | 1438.1 ± 1.6 | 1401.9 ± 1.6 | 1366.2 ± 1.6
x1 = 1 | 1169.93 ± 0.37 | 1159.33 ± 0.36 | 1148.69 ± 0.35 | 1138.01 ± 0.34 | 1495.4 ± 1.6 | 1458.8 ± 1.6 | 1422.5 ± 1.6 | 1386.5 ± 1.6

O=Cc1ccco1 [2-furaldehyde] + CCO
Settings | mass density, 283.15 K [kg/m3] | mass density, 293.15 K [kg/m3] | mass density, 303.15 K [kg/m3] | mass density, 313.15 K [kg/m3] | speed of sound, 283.15 K [m/s] | speed of sound, 293.15 K [m/s] | speed of sound, 303.15 K [m/s] | speed of sound, 313.15 K [m/s]
x1 = 0.0486 | 825.34 ± 0.59 | 816.58 ± 0.59 | 807.7 ± 0.58 | 798.67 ± 0.58 | 1221.8 ± 1.7 | 1187.2 ± 1.7 | 1152.6 ± 1.6 | 1118.5 ± 1.6
x1 = 0.0995 | 852.29 ± 0.57 | 843.29 ± 0.56 | 834.16 ± 0.56 | 824.83 ± 0.55 | 1245.2 ± 1.6 | 1210.4 ± 1.6 | 1175.6 ± 1.6 | 1141.2 ± 1.6
x1 = 0.15 | 877.44 ± 0.54 | 868.21 ± 0.54 | 858.83 ± 0.53 | 849.37 ± 0.53 | 1265.6 ± 1.6 | 1230.5 ± 1.6 | 1195.7 ± 1.6 | 1161.2 ± 1.6
x1 = 0.2 | 901.29 ± 0.53 | 891.88 ± 0.52 | 882.29 ± 0.52 | 872.64 ± 0.52 | 1284.6 ± 1.6 | 1249.7 ± 1.6 | 1214.8 ± 1.6 | 1180.2 ± 1.6
x1 = 0.25 | 924.5 ± 0.51 | 914.91 ± 0.51 | 905.24 ± 0.51 | 895.34 ± 0.51 | 1302.7 ± 1.6 | 1267.7 ± 1.6 | 1232.8 ± 1.6 | 1198.2 ± 1.6
x1 = 0.3001 | 946.91 ± 0.47 | 937.18 ± 0.47 | 927.3 ± 0.47 | 917.42 ± 0.47 | 1320.2 ± 1.6 | 1285.2 ± 1.6 | 1250.3 ± 1.6 | 1215.7 ± 1.6
x1 = 0.4501 | 1007.43 ± 0.44 | 997.35 ± 0.43 | 987.26 ± 0.43 | 977.03 ± 0.43 | 1367.1 ± 1.6 | 1331.9 ± 1.6 | 1296.9 ± 1.6 | 1262.3 ± 1.6
x1 = 0.6501 | 1076.56 ± 0.45 | 1066.08 ± 0.44 | 1055.65 ± 0.44 | 1045.07 ± 0.43 | 1421.3 ± 1.6 | 1385.7 ± 1.6 | 1350.4 ± 1.6 | 1315.4 ± 1.6
x1 = 0.7007 | 1091.79 ± 0.42 | 1081.25 ± 0.42 | 1070.76 ± 0.41 | 1060.22 ± 0.4 | 1433.5 ± 1.6 | 1398 ± 1.6 | 1362.5 ± 1.6 | 1327.2 ± 1.6
x1 = 0.7498 | 1105.77 ± 0.42 | 1095.26 ± 0.42 | 1084.63 ± 0.41 | 1074.13 ± 0.4 | 1444.7 ± 1.6 | 1409.1 ± 1.6 | 1373.4 ± 1.6 | 1338 ± 1.6
x1 = 0.8003 | 1119.65 ± 0.42 | 1109.04 ± 0.42 | 1098.47 ± 0.41 | 1087.81 ± 0.4 | 1455.7 ± 1.6 | 1419.9 ± 1.6 | 1384.2 ± 1.6 | 1348.8 ± 1.6
x1 = 0.8503 | 1132.81 ± 0.43 | 1122.12 ± 0.42 | 1111.5 ± 0.41 | 1100.88 ± 0.4 | 1466.4 ± 1.6 | 1430.6 ± 1.6 | 1394.6 ± 1.6 | 1358.8 ± 1.6
x1 = 0.9004 | 1145.37 ± 0.43 | 1134.68 ± 0.42 | 1124.08 ± 0.42 | 1113.48 ± 0.41 | 1476.6 ± 1.6 | 1440.3 ± 1.6 | 1404.2 ± 1.6 | 1368.5 ± 1.6
x1 = 0.9498 | 1157.85 ± 0.44 | 1147.23 ± 0.43 | 1136.49 ± 0.42 | 1125.72 ± 0.41 | 1486.3 ± 1.6 | 1450.1 ± 1.6 | 1413.8 ± 1.6 | 1377.8 ± 1.6
x1 = 1 | 1169.93 ± 0.37 | 1159.33 ± 0.36 | 1148.69 ± 0.35 | 1138.01 ± 0.34 | 1495.4 ± 1.6 | 1458.8 ± 1.6 | 1422.5 ± 1.6 | 1386.5 ± 1.6
